Laboratory results from patent US20260028354A1, “TETRAHYDRONAPHTHALENE DERIVATIVES AS ESTROGEN RECEPTOR DEGRADERS” (REGENT OF THE UNIVERSITY OF MICHIGAN, priority 2022, published 2026).
Like-named read-outs stand apart in the source and are kept apart here.

Experiments:
ER in T47D cells = ER in T47D cells (Homo sapiens (Human), UniProt P03372); test: In-cell Western (ICW) ER degradation assay in T47D cells; type: cell-based; settings: 16 hrs treatment; for DC50: ER degradation
From the text: In-cell Western (ICW) assays in MCF-7 and T47D cell lines.
Day 3: After 16 hrs of compounds treatment, cells were fixed by 4% PFA and permeabilized with elution buffer (0.1% Triton X-100 in 1% PBS Solution). Subsequently, cells were blocked with Intercept (PBS) Blocking Buffer (Li-COR, Odyssey Blocking Buffer), and were stained with ER (1:500, Cell signaling) primary antibody for overnight at cold room.
Day 4: Remove the buffer, add IRDye 800CW Goat anti-Rabbit IgG Secondary Antibody (1:2000) and CellTag 700 Stain (1:500) in Intercept (PBS) Blocking Buffer. Finally, cell plate is placed in incubator to dry. Image and signal were captured on Odyssey® DLx Imaging System.

CRBN/DDB1 = CRBN/DDB1 (Homo sapiens (Human), UniProt Q96SW2); type: binding; settings: His tagged CRBN+DDB1, Cy5-labeled Thalidomide probe, one hour; read-out: CRBN HTRF IC50
CRBN/DDB1, sequence (Q96SW2 whole entry, species assumed): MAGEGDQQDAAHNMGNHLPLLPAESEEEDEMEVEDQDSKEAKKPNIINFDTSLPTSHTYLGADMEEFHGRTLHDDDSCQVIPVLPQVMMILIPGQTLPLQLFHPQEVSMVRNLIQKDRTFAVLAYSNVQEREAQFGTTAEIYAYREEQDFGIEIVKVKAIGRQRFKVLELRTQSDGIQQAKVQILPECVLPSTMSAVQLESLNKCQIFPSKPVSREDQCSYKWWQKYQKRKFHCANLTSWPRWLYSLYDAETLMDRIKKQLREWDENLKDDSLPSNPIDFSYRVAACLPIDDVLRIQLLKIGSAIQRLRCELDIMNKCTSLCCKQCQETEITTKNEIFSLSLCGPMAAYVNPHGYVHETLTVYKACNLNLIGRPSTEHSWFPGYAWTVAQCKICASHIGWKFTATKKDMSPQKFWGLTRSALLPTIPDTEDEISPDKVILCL
CRBN/DDB1, sequence (Q16531 whole entry partner, species assumed): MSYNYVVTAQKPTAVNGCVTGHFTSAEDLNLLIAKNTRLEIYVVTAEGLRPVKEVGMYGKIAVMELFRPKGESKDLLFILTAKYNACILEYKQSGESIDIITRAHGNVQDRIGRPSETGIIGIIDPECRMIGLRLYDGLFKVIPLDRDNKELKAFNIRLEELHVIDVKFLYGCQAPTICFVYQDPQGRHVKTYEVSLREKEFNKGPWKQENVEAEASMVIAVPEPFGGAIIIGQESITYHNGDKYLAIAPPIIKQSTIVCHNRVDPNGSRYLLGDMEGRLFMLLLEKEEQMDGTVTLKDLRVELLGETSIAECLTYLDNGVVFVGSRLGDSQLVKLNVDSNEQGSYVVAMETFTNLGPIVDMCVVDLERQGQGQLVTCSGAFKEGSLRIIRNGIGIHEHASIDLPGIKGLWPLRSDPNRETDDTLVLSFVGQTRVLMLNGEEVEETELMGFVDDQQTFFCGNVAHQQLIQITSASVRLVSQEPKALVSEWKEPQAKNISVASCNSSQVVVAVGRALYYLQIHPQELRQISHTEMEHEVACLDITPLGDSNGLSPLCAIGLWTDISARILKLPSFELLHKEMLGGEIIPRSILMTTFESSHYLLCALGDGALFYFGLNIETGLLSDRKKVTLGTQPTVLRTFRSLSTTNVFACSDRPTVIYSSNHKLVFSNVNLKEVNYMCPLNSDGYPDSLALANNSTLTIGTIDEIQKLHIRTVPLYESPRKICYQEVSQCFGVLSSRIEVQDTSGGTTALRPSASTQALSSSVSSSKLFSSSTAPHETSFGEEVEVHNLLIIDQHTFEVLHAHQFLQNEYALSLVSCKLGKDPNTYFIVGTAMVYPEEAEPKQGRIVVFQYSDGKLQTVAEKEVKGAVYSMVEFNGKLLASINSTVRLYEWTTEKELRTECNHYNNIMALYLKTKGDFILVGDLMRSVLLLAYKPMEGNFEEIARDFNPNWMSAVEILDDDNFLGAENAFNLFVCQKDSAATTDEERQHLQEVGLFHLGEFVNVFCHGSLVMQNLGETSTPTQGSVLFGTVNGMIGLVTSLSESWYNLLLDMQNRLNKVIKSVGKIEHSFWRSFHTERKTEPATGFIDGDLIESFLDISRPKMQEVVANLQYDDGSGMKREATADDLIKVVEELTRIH
Protocol: The binding potency was determined using HTRF assay technology (Perkin Elmer). Compounds were serially diluted in DMSO and […] volume was transferred to white 384-well plate.

ER in MCF-7 cells = ER in MCF-7 cells (Homo sapiens (Human), UniProt P03372); test: In-cell Western (ICW) ER degradation assay in MCF-7 cells; type: cell-based; settings: for DC50: MCF-7, ER degradation, read-out: MCF7 DC50
ER in MCF-7 cells, sequence (P03372 whole entry): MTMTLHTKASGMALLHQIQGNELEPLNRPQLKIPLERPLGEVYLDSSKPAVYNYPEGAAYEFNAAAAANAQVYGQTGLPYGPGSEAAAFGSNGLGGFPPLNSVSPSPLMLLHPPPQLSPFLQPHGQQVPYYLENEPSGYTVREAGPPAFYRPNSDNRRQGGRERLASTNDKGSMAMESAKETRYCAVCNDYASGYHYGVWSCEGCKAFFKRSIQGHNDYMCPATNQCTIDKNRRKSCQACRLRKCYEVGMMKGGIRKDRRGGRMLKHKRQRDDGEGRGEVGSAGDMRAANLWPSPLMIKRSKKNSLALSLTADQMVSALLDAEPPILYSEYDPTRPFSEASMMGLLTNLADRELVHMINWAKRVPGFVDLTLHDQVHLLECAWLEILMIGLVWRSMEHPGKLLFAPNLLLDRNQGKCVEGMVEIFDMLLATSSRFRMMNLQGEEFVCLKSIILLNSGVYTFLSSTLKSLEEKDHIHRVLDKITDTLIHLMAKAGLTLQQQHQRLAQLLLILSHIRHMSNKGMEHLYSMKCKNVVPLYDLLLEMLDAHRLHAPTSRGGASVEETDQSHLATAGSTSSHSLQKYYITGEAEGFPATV

[1] = MCF7, read-out: MCF7 Dmax, MCF-7, maximal ER degradation, 16 hrs treatment
[2] = MCF7, MCF-7, maximal ER degradation, 16 hrs treatment, read-out: MCF7 Dmax

ER in T47D cells, sequence (P03372 whole entry): as above

| Compound | DC50 (ER in T47D cells) | Dmax (ER in T47D cells; maximal ER degradation, read-out: T47D Dmax) | IC50 (CRBN/DDB1) | T47D Dmax (ER in T47D cells; maximal ER degradation) | Dmax (ER in MCF-7 cells; [1]) | DC50 (ER in MCF-7 cells; 16 hrs treatment) | Dmax (ER in MCF-7 cells; [2]) | MCF7 Dmax (ER in MCF-7 cells; MCF-7, maximal ER degradation, 16 hrs treatment) |
| --- | --- | --- | --- | --- | --- | --- | --- | --- |
| COc1nc(C(=O)NC2CCC(=O)NC2=O)ccc1N1CCN(CC2CCN(c3ccc([C@@H]4c5ccc(O)cc5CC[C@@H]4c4ccccc4)cc3)CC2)CC1 (single isomer, unassigned) [Compound A1] | 1 to 10 nM | 25 to 50% | 500 to 5000 nM |  |  |  |  |  |
| COc1cc([C@@H]2c3ccc(O)cc3CC[C@@H]2c2ccccc2)c(F)cc1N1CCC(CN2CCN3c4ccc5c(c4OC[C@H]3C2)CN([C@H]2CCC(=O)NC2=O)C5=O)CC1 (single isomer, unassigned) [Compound A98] | 10 to 100 nM |  | 50 to 500 nM | C (“C”: 25-50%) |  |  |  |  |
| O=C1CC[C@H](N2Cc3c(ccc4c3OCC43CCN(CC4CCN(c5ccc([C@@H]6c7ccc(O)cc7CC[C@@H]6c6ccccc6)cc5)CC4)CC3)C2=O)C(=O)N1 [Compound A70, (S)-3-(1′-((1-(4-((1R,2S)-6-hydroxy-2-phenyl-1,2,3,4-tetrahydronaphthalen-1-yl)-phenyl)piperidin-4-yl)methyl)-6-oxo-6,8-dihydro-2H,7H-spiro[furo[2,3-e]isoindole-3,4′-piperidin]-7-yl)piperidine-2,6-dione] |  |  | < 50 nM |  | 50 to 75% | < 1 nM |  |  |
| O=C1CC[C@H](N2Cc3c(ccc4c3OCC43CCN(C[C@H]4COC5(C4)CN(c4ccc([C@@H]6c7ccc(O)cc7CC[C@@H]6c6ccccc6)cc4)C5)CC3)C2=O)C(=O)N1 [Compound A74, (S)-3-(1′-(((S)-2-(4-((1R,2S)-6-hydroxy-2-phenyl-1,2,3,4-tetrahydronaphthalen-1-yl)phenyl)-5-oxa-2-azaspiro[3,4]octan-7-yl)methyl)-6-oxo-6,8-dihydro-2H,7H-spiro[furo[2,3-e]isoindole-3,4′-piperidin]-7-yl)piperidine-2,6-dione] |  |  | < 50 nM |  | 50 to 75% | < 1 nM |  |  |
| O=C1CC[C@H](N2Cc3c(ccc4c3OCC43CCN(C[C@@H]4COC5(C4)CN(c4ccc([C@@H]6c7ccc(O)cc7CC[C@@H]6c6ccccc6)cc4)C5)CC3)C2=O)C(=O)N1 [Compound A75, (S)-3-(1′-(((R)-2-(4-((1R,2S)-6-hydroxy-2-phenyl-1,2,3,4-tetrahydronaphthalen-1-yl)phenyl)-5-oxa-2-azaspiro[3,4]octan-7-yl)methyl)-6-oxo-6,8-dihydro-2H,7H-spiro[furo[2,3-e]isoindole-3,4′-piperidin]-7-yl)piperidine-2,6-dione] |  |  | < 50 nM |  | 50 to 75% | < 1 nM |  |  |
| O=C1CC[C@H](N2Cc3c(ccc4c3OC[C@H]3CN(CCCOC5CN(c6ccc([C@@H]7c8ccc(O)cc8CC[C@@H]7c7ccccc7)cc6)C5)CCN43)C2=O)C(=O)N1 [Compound A78, (S)-3-((R)-7-(3-((1-(4-((1R,2S)-6-hydroxy-2-phenyl-1,2,3,4-tetrahydronaphthalen-1-yl)-phenyl)azetidin-3-yl)oxy)prop-yl)-1-oxo-1,3,5,5a,6,7,8,9-octa-hydro-2H-pyrazino[1′,2′:4,5] [1,4]oxazino[2,3-e]isoindol-2-yl)piperidine-2,6-dione] |  |  | < 50 nM |  |  | < 1 nM | 50 to 75% |  |
| O=C1CC[C@H](N2Cc3c(ccc4c3OC[C@H]3CN(C5CN(CCOc6ccc([C@@H]7c8ccc(O)cc8CC[C@@H]7c7ccccc7)cc6)C5)CCN43)C2=O)C(=O)N1 [Compound A79, (S)-3-((R)-7-(1-(2-(4-((1R,2S)-6-hydroxy-2-phenyl-1,2,3,4-tetrahydronaphthalen-1-yl)-phenoxy)ethyl)azetidin-3-yl)-1-oxo-1,3,5,5a,6,7,8,9-octa-hydro-2H-pyrazino[1′,2′:4,5] [1,4]oxazino[2,3-e]isoindol-2-yl)piperidine-2,6-dione] |  |  | < 50 nM |  |  | < 1 nM | 50 to 75% |  |
| O=C1CC[C@H](N2Cc3c(ccc4c3OCC43CCN(C4CN(CCOc5ccc([C@@H]6c7ccc(O)cc7CC[C@@H]6c6ccccc6)cc5)C4)CC3)C2=O)C(=O)N1 [Compound A80, (S)-3-(1′-(1-(2-(4-((1R,2S)-6-hydroxy-2-phenyl-1,2,3,4-tetrahydronaphthalen-1-yl)-phenoxy)ethyl)azetidin-3-yl)-6-oxo-6,8-dihydro-2H,7H-spiro[furo[2,3-c]isoindolc-3,4′-piperidin]-7-yl)piperidine-2,6-dione] |  |  | < 50 nM |  | 50 to 75% | < 1 nM |  |  |
| O=C1CC[C@H](N2Cc3c(ccc4c3OCC43CCN(CC4CC5COCC(C4)N5c4ccc([C@@H]5c6ccc(O)cc6CC[C@@H]5c5ccccc5)cc4)CC3)C2=O)C(=O)N1 (stereo partly drawn) [Compound A81, (3S)-3-(1′-((9-(4-((1R,2S)-6-hydroxy-2-phenyl-1,2,3,4-tetra-hydronaphthalen-1-yl)phenyl)-3-oxa-9-azabicyclo[3.3.1]nonan-7-yl)methyl)-6-oxo-6,8-dihydro-2H,7H-spiro[furo[2,3-e]isoindole-3,4′-piperidin]-7-yl)piperidine-2,6-dione] |  |  | < 50 nM |  | 25 to 50% | < 1 nM |  |  |
| COc1cc([C@H]2c3ccc(O)cc3CC[C@H]2c2ccccc2)c(F)cc1N1CCC2(CC1)CC(CN1CCN3c4ccc5c(c4OC[C@H]3C1)CN([C@H]1CCC(=O)NC1=O)C5=O)C2 [Compound A117, (S)-3-((R)-7-((7-(5-fluoro-4-((1R,2R)-6-hydroxy-2-phenyl-1,2,3,4-tetrahydronaphthalen-1-yl)-2-methoxyphenyl)-7-aza-spiro[3.5]nonan-2-yl)methyl)-1-oxo-1,3,5,5a,6,7,8,9-octa-hydro-2H-pyrazino[1′,2′:4,5] [1,4]oxazino[2,3-e]isoindol-2-yl)piperidine-2,6-dione] |  |  | < 50 nM |  |  | 10 to 100 nM | 25 to 50% |  |
| COc1cc(N2CCC(CN3CCC(c4ccc(N[C@H]5CCC(=O)NC5=O)c(F)c4)CC3)CC2)c(F)cc1[C@@H]1c2ccc(O)cc2CC[C@@H]1c1ccccc1 [Compound A118, (S)-3-((2-fluoro-4-(1-((1-(2-fluoro-4-((1S,2S)-6-hydroxy-2-phenyl-1,2,3,4-tetrahydronaph-thalen-1-yl)-5-methoxyphenyl)-piperidin-4-yl)methyl)piper-idin-4-yl)phenyl)amino)piper-idine-2,6-dione] |  |  | 500 to 5000 nM |  |  | < 1 nM | 25 to 50% |  |
| O=C1CC[C@H](N2Cc3c(ccc4c3OCC43CCN(CC4CC5(CCN(c6ncc([C@H]7c8ccc(O)cc8CC[C@H]7c7ccccc7)cn6)CC5)C4)CC3)C2=O)C(=O)N1 [Compound A141, (S)-3-(1′-((7-(5-((1R,2R)-6-hydroxy-2-phenyl-1,2,3,4-tetrahydronaphthalen-1-yl)pyrimidin-2-yl)-7-azaspiro[3.5]nonan-2-yl)methyl)-6-oxo-6,8-dihydro-2H,7H-spiro[furo[2,3-e]isoindole-3,4′-piperidin]-7-yl)piperidine-2,6-dione] |  |  | < 50 nM |  | 50 to 75% | 1 to 10 nM |  |  |
| O=C1CC[C@H](N2Cc3c(ccc4c3OCC43CCN(CC4CC5(CCN(c6ncc([C@@H]7c8ccc(O)cc8CC[C@@H]7c7ccccc7)cn6)CC5)C4)CC3)C2=O)C(=O)N1 [Compound A142, (S)-3-(1′-((7-(5-((1S,2S)-6-hydroxy-2-phenyl-1,2,3,4-tetrahydronaphthalen-1-yl)pyrimidin-2-yl)-7-azaspiro[3.5]nonan-2-yl)methyl)-6-oxo-6,8-dihydro-2H,7H-spiro[furo[2,3-e]isoindole-3,4′-piperidin]-7-yl)piperidine-2,6-dione] |  |  | < 50 nM |  | 50 to 75% | < 1 nM |  |  |
| O=C1CC[C@H](N2Cc3c(ccc4c3OCC43CCN(CC4CCC5(CC4)CN(c4ncc([C@H]6c7ccc(O)cc7CC[C@H]6c6ccccc6)cn4)C5)CC3)C2=O)C(=O)N1 [Compound A153, (S)-3-(1′-((2-(5-((1R,2R)-6-hydroxy-2-phenyl-1,2,3,4-tetrahydronaphthalen-1-yl)pyrimidin-2-yl)-2-azaspiro[3.5]nonan-7-yl)methyl)-6-oxo-6,8-dihydro-2H,7H-spiro[furo[2,3-e]isoindole-3,4′-piperidin]-7-yl)piperidine-2,6-dione] |  |  | < 50 nM |  | < 25% | > 100 nM |  |  |
| O=C1CC[C@H](N2Cc3c(ccc4c3OCC43CCN(CC4CCC5(CC4)CN(c4ccc([C@H]6c7ccc(O)cc7CC[C@H]6c6ccccc6)cc4F)C5)CC3)C2=O)C(=O)N1 [Compound A160, (S)-3-(1′-((2-(2-fluoro-4-((1S, 2R)-6-hydroxy-2-phenyl-1,2,3,4-tetrahydronaphthalen-1-yl)phenyl)-2-azaspiro[3.5]nonan-7-yl)methyl)-6-oxo-6,8-dihydro-2H,7H-spiro[furo[2,3-c]isoindolc-3,4′-pipcridin]-7-yl)pipcridinc-2,6-dione] |  |  | 50 to 500 nM |  | 50 to 75% | 10 to 100 nM |  |  |
| (S)-3-((3-fluoro-4-(1-((1-(2-fluoro-4-((1S,2S)-6-hydroxy-2-phenyl-1,2,3,4-tetrahydronaphthalen-1-yl)-5-methoxyphenyl)piperidin-4-yl)methyl)piperidin-4-yl)phenyl)amino)piperidine-2,6-dione [Compound A120] |  |  | 500 to 5000 nM |  |  | 10 to 100 nM |  | C (“C”: 25-50%) |
